Assay results published in US6951887B2 (The Research Foundation of State University of New York, priority 1998, dated 2005).

Assays:
[1] = system: HeLa (cervical cancer) cells; test: TUNEL assay for apoptosis; assay type: cell-based; settings: ca. 20-24 hours, ca. twofold above threshold killing concentration
Description: In order to understand the experiment described in this Example is necessary to review details concerning the specific assay used in the experiments. Nuclear DNA of cells is normally present in the very long molecules making up chromosomes. These very long polymer molecules have only extremely rare free ends. In contrast, after the induction of apoptosis the cell begins to destroy itself and, in the process, introduces an extremely large number of breaks in its DNA in the process of reducing it to its small monomer constituents. The appropriate enzyme —terminal transferase—will add nucleotides to the free ends of DNA molecules. Moreover, this enzyme will use monomers (nucleotides) for this addition reaction that have highly fluorescent groups added to them. Thus, if the nuclei of normal cells—with few free DNA ends—are exposed to terminal transferase and fluorescent monomers very little fluorescence is added to these nuclei. In contrast, when these components are added to the nuclei of cells undergoing apoptosis and very large number of fluorescent monomers are added—to the very many DNA ends that are present—resulting in a massive introduction of fluorescence. The conventional assay based on these properties is referred by the acronym TUNEL. […] HeLa cancerous cells were plated in several wells in a tissue culture dish. […]

HeLa (Cervix) = test: killing of cultured cells, HeLa; assay type: cell-based; design: key to cells killed by treatment: “+” indicates that the cells were killed by treatment; “−” indicates that they were not; “+/−” indicates a slow marginal response seen only in a few special cases with fibroblasts experimentally transformed by introduction of the ras oncogene
Description: (§1) Table 1: Summarized are the responses of cells in culture to killing by example members of the family of blocked lipoate derivatives that are the object of this invention as well as one control compound (dihydroxyoctanoic acid). At right is indicated the specific cell line followed by the tissue of origin of the cell line. Across the top are listed the specific compounds tested. Each blocked lipoate derivative was used at two to fourfold above its threshold killing concentration. [These concentrations range form 0.15 mM (60 ug/ml or 60 mg/kg) to 2.5 mM (800 ug/ml or 800 mg/kg) (see EXAMPLE 11).] […] “+/−” indicates a slow marginal response seen only in a few special cases with fibroblasts experimentally transformed by introduction of the ras oncogene (EXAMPLE 10).
(§2) First, each cell type to be tested was plated at low densities in the wells of a standard 6×24 well tissue culture plate. (Multiple wells are seeded for each cell type.)
(§3) Second, the cells were allowed to grow to moderate densities. Transformed cells are in contact and non-transformed cells are contact-inhibited under these conditions.
(§4) Third, the lipoate derivatives to be tested were added to individual wells. In these experiments each compound was added at two to fourfold above the threshold killing concentration for cancer cells (EXAMPLE 11).
(§5) Fourth, cells were monitored over the next several days.

cancer cells in culture = test: threshold killing concentration and dose response in cultured cells; assay type: cell-based
Description: First, each compound killed cancer cells in culture at or above a relatively narrow, specific concentration range, but not below. The threshold concentrations given below represent the approximate center of this range which extended roughly two to threefold. […] Below these saturation ranges, sensitive cells survived and grew. They could be removed and replated to grow, apparently indefinitely, under these conditions. […] This was a highly unusual dose/response profile. The threshold killing concentrations (ranges) varied between individual compounds. Examples of these threshold killing concentrations were as follows: bis-benzoyl lipoate (EXAMPLE 3) 60 mg/liter (60 mg/kg), monoacetyl lipoate (EXAMPLE 4) 100 mg/liter (100 mg/kg); bis-acetyl lipoate (EXAMPLE 2) 600 mg/liter (600 mg/kg).
These changes were ultimately followed by cell death if treatment was continued. However, these morphological changes were reversed, and the cells recovered, if the lipoate derivative was removed during this initial exposure. As with the dose/response profile of the preceeding paragraph, this reversible induction of morphological change followed by commitment to cell death is highly idiosyncratic. The discovery that this behavior was shown by all tested members of the class of compounds that are the object of this invention was, again, very strong evidence that these compounds are, in fact, a functionally coherent class.

NIH 3T3 ras transformed = test: killing of cultured cells, ras-transformed NIH 3T3 (T24); assay type: cell-based; design: key to cells killed by treatment: “+” indicates that the cells were killed by treatment; “−” indicates that they were not; “+/−” indicates a slow marginal response seen only in a few special cases with fibroblasts experimentally transformed by introduction of the ras oncogene
Description: as §1, §2, §3, §4, §5
NIH-3T3 cells are relatively normal, noncancerous cells. However, if an activated allele of the ras oncogene is introduced into these cells they become highly malignant (cancerous) as assessed by several assays (REFERENCE).

Saos 2 (Bone) = test: killing of cultured cells, Saos 2; assay type: cell-based; design: key: “+” indicates that the cells were killed by treatment; “−” indicates that they were not; “+/−” indicates a slow marginal response seen only in a few special cases with fibroblasts experimentally transformed by introduction of the ras oncogene; settings: compound at two to fourfold above its threshold killing concentration
Description: as §1, §2, §3, §4, §5

MCF 7 (Breast) = test: killing of cultured cells, MCF 7; assay type: cell-based; design: key: “+” indicates that the cells were killed by treatment; “−” indicates that they were not; “+/−” indicates a slow marginal response seen only in a few special cases with fibroblasts experimentally transformed by introduction of the ras oncogene; settings: compound at two to fourfold above its threshold killing concentration
Description: as §1, §2, §3, §4, §5

B-16 melanoma = test: B-16 system, subcutaneous tumors; assay type: in vivo, mouse; settings: 50 mg/kg IP twice daily plus twice daily injection directly into the tumor mass
Description: The B-16 melanoma strain was introduced either subcutaneously or intraperitoneally into individuals of the C57/BL syngeneic mouse strain (7). When left untreated such mice develop massive tumors in the immediate area of injection as well as secondary metastases throughout the animal—including in the liver and the lungs. These malignant growths result in the early death of the animals. Moreover, the resulting malignant growths are made up of darkly pigmented malignant melanocytes—making their assessment convenient and highly reliable. We will henceforth refer to this as the “B-16 system”.
Second, a group of animals were injected at a subcutaneous site with B-16 cells. […] As this time, one group oL animals (experimentals) began a twice-daily series of injections of the bis-acetyl lipoate derivative (100 mg/kg in 100 ul of isotonic saline) and a second set (controls) of corresponding injections of the saline solvent alone. [See EXAMPLES 2, 8 and 11 for the details of bis-acetyl lipoate derivative.]
Third, in several animals subcutaneous tumors were produced as in the preceding paragraph. After the tumors had grown to visible, palpable size, these animals received both a twice daily IP (systemic) dose of 50 mg/kg of bis-benzoyl lipoate as well as a twice daily direct injection a second dose of the same volume directly into the tumor mass.

O=C(O)CCCCC(CCSC(=O)c1ccccc1)SC(=O)c1ccccc1 (centres unmarked) [bis-benzoyl lipoate, 6,8-bisbenzoylmercaptooctanoic acid]
induction of apoptosis (TUNEL) [1]: induces apoptosis | cells killed by treatment (HeLa (Cervix); Cervix, compound at two to fourfold above its threshold killing concentration): + | time by which all cancer cells are killed (HeLa (Cervix); conditions of FIG. 3): 48 to 60 h | effective dose in cell culture (cancer cells in culture): 60 µg/mL | threshold killing concentration (cancer cells in culture; approximate center of a range extending two to threefold): 60 mg/L | cancerous (transformed) cells killed (FIG. 2) (NIH 3T3 ras transformed; 120 ug/ml, 24 hours of treatment, T24 ras-transformed NIH3T3): ca. 50% | killing of transformed cells (FIG. 2) (NIH 3T3 ras transformed; 120 ug/ml, ca. 48 hours of treatment): almost entirely irradicated | cells killed by treatment (NIH 3T3 ras transformed; NIH 3T3 ras transformed, compound at two to fourfold above its threshold killing concentration): + | cells killed by treatment (Saos 2 (Bone)): + | cells killed by treatment (MCF 7 (Breast)): + | response of subcutaneous tumor (B-16 melanoma): especially robust response
